Results taken from PMC3534213, “γ-Secretase Modulators: Can We Combine Potency with Safety?” (International Journal of Alzheimer's Disease, 2012).

How the values were obtained:
[1] = Dog model combining PK/PD data with early observations of liver toxicity; format: in vivo
Protocol: (§1) For the cellular in vitro activity of our own compounds, screening was carried out using SKNBE2 human neuroblastoma cells carrying the hAPP 695 wild-type as described in [15]. For a description of the mouse in vivo experiments, see references; for details on the dog in vivo experiments, see [17].
(§2) Both compounds have been tested in advanced animal models, including repeated dosing in rat and dog. […] Based on these findings, further development was halted. Since then, the dog model combining PK/PD data with early observations of liver toxicity is routinely used in our discovery program to triage compounds [17]. Both JNJ-40418677 and JNJ-42601572 contain a considerable number of conjugated aromatic rings and are characterized by high lipophilicity and molecular weight. In recent years a number of publications have appeared relating such properties with a low probability of success in clinical development. Catchy phrases like “molecular obesity” and “escape from flatland” have been used to describe the issues associated with high molecular weight and number of (hetero) aromatic rings in molecules. Based on analysis of compound properties and their attrition or success in (pre)clinical development, guidelines have been formulated and proposed which can be applied during optimization efforts in medicinal chemistry programs to strive towards more drug-like compounds. The concept of ligand efficiency (LE) is now routinely applied in the drug discovery process. It is defined as the binding energy towards a biological target per (heavy = nonhydrogen) atom in a compound. Since most assays are not directly measuring binding energy, IC50 values are often used to make a relative comparison of the LE of compounds. By working towards a high LE, molecular weight can be kept in control while optimizing pharmacological activity. […]

CSF Aβ42 [2] = assay: as above; format: in vivo; conditions: 20 mg/kg p.o.
Protocol: as §1, §2

γ-secretase = molecular target: T1, γ-secretase (Homo sapiens, UniProt P49768); assay: Cellular Aβ42 lowering in SKNBE2 human neuroblastoma cells carrying hAPP 695 wild-type; format: cell-based; conditions: cellular assay, determined internally
T1 construct: screening was carried out using SKNBE2 human neuroblastoma cells carrying the hAPP 695 wild-type; endogenous in cells; host or cells: SKNBE2 human neuroblastoma cells carrying hAPP 695 wild-type

[3] = Free fraction in brain (brain tissue binding, Fub); format: in vitro ADME
[4] = Limited tolerance study in rats; format: in vivo; conditions: two-week daily dose of 200 mg/kg
plasma Aβ42 = test system: plasma Aβ42; parameters: method as in earlier work; conditions: human, 400 mg dose; cited from earlier work
[5] = parameters: method as in earlier work; conditions: high-dose group, rats; cited from earlier work
CSF Aβ42 [6] = test system: CSF Aβ42; parameters: method as in PMID 22072214; conditions: dog, single dose of 80 mg/kg; cited from earlier work
[7] = parameters: method as in PMID 22072214; conditions: repeated dosing in rat and dog; cited from earlier work
[8] = Free fraction in plasma (plasma protein binding); format: in vitro ADME
plaque load = test system: plaque load; parameters: method as in PMID 21232036; conditions: chronic treatment of transgenic mice, exposure below concentrations required for Aβ42 reduction after a single dose; cited from earlier work
brain Aβ42 = test system: brain Aβ42; parameters: method as in PMID 22429469; conditions: 100 mg/kg oral dose; cited from earlier work
[9] = parameters: method as in PMID 22468891; conditions: Phase III clinical trials; cited from earlier work
[10] = cited from earlier work

COc1nc(-c2nc3n(n2)CCO[C@H]3c2ccccc2OC(F)(F)F)ccc1-n1cnc(C)c1 [Compound 16]
concentration at 4 h ([1]; CSF, 20 mg/kg oral, 4 h, read-out: CSF compound concentration): 0.524 ± 0.062 µM
Cmax ([1]; plasma, po, 20 mg/kg): 24 ± 3 µM
bilirubin or ALT levels (CSF Aβ42 [2]): no increases in bilirubin or ALT levels were observed
IC50 (γ-secretase): 56 nM
fraction unbound [3]: 0.039
signs of liver toxicity [4]: did not lead to overt signs of liver toxicity

COc1cc(/C=C2\CCCN([C@@H](C)c3ccc(F)cc3)C2=O)ccc1-n1cnc(C)c1 [Compound 3]
maximum reduction of plasma Aβ42 levels (plasma Aβ42): ~ 50%
lenticular opacity [5]: lenticular opacity was observed
gene-expression profile in liver tissue (CSF Aβ42 [6]): large changes in gene-expression profile
liver parameters (CSF Aβ42 [6]): liver parameter changes

CC(C)C[C@H](C(=O)O)c1cc(-c2ccc(C(F)(F)F)cc2)cc(-c2ccc(C(F)(F)F)cc2)c1 [Compound 4]
fraction unbound [3]: < 0.001
liver toxicity signs (bilirubin and ALT/AST increases) [7]: early signs of liver toxicity were noted
fraction unbound [8]: < 0.001
effect on plaque load (plaque load): preventive effect on plaque load

COc1nc(C(=O)N[C@H]2COc3ccc(Cl)c(F)c32)ccc1-n1cnc(C)c1 [Compound 15]
lowering of Aβ42 levels in Guinea pig brain (brain Aβ42): 36%

CC(C)[C@H](O)C(=O)N[C@@H](C)C(=O)N[C@@H]1C(=O)N(C)CCc2ccccc21 [Compound 1, semagacestat]
effect on cognition [9]: statistically significant decline in cognition
risk of skin cancer [9]: increased risk of skin cancer

C[C@@H](C(=O)O)c1ccc(-c2ccccc2)c(F)c1 [Compound 2, tarenflurbil]
tolerability in clinical trials ([10]; high dosage): well tolerated
phase III clinical trial outcome ([10]; phase III): negative results
